The test system of data set [1] is B16-F10 syngeneic melanoma tumors. Description: Subcutaneous B16-F10 syngeneic melanoma tumor model, oral dipivefrin as single agent. The note with it: for MST (median survival time): vehicle 17.0. It is filed as in vivo, C57BL/6J mice. An excerpt: The treatments were started 7 days before tumor inoculation per study design (day −7).
The endpoints of the study included the following: tumor growth inhibition (TGJ); reduction in median tumor volume on a given day; survival of all animals will be followed and Median Survival Time (MST) and increase in life-span (ILS) will be calculated for each group.
The percent tumor growth inhibition (TGJ %) is an indication of antitumor effectiveness, and is expressed as: TGJ (%)=100× (1-TIC), in which T and C are the mean tumor volume of the treated and control groups, respectively, on a given day.
The endpoint for each mouse is either a tumor volume >3000 mm^3 or the animal is in extreme discomfort (such as pain, seizure, difficulty breathing, etc.). The increase in life-span (ILS) is calculated as follows: ILS (%)=100× [(Median Survival Time of drug treated group/Median Survival Time of vehicle group)−1] (%)
Female C57BL/6J mice (Shanghai Lingchang Bio-Technology Co. Ltd (LC, Shanghai, China; Animal Certificate No.: 2013001825675) were used in the study. At inoculation, mice were 7-8 weeks old with a body weight of 16.2-18.6 g. The mice were kept in an Individually Ventilated Cage (IVC) system at constant temperature (22˜24° C.) and humidity (60-70%) with 5 animals in each cage. Animals had free access during the entire study period to a standard mouse diet (a Co^60 irradiation-sterilized dry granule food) and water.
The test articles used in the study were dipivefrin hydrochloride (1.9 mg/ml freebase, pre-formulated dosing solution) or the vehicle (purified water containing 0.005% wt of benzalkonium chloride as preservative). Each was stored at 4° C. The B16-F10 tumor cells were maintained in vitro as a monolayer culture in DMEM medium supplemented with 10% fetal bovine serum at 37° C. in an atmosphere of 5% CO2 in air. The tumor cells were routinely subcultured twice per week. The cells growing in an exponential growth phase were harvested and counted for tumor inoculation.
Each mouse was inoculated subcutaneously at the right flank region with 2×10^5 B16F10 tumor cells in 0.1 ml of PBS for tumor development. The treatments were started 7 days prior to the inoculation. The test article was administered to the tumor-bearing mice according to the predetermined regimen as shown in the Study Design Table 3. The date of tumor cell inoculation was denoted as day 0.
First grouping: On day 7, all 30 animals were weighed and the body weight was used as numeric parameter to randomize selected animals into two groups in an effort to minimize systematic error.
Second grouping: On day 8, all 20 animals in group-1 were randomized into two groups (1a and 1b) based on tumor volume. Dose administrations were performed as shown Table 5.
After tumor cell inoculation, animals were checked daily for morbidity and mortality. At the time of routine monitoring, the animals were checked for any effects of tumor growth and treatments on normal behavior such as mobility, food and water consumption, body weight gain/loss (body weights were measured twice or thrice per week), eye/hair matting and any other abnormal effect. Death and observed clinical signs were recorded on the basis of the numbers of animals within each subset.
Tumor volumes were measured twice or thrice per week in two dimensions using a caliper, with the volume in mm^3 estimated using the formula: V=0.5 a×b^2 where a and b are the long and short perpendicular diameters of the tumor, respectively. The procedures of dosing as well as tumor and body weight measurement were conducted in a Laminar Flow Cabinet.
On day 17, mice which tumor volumes exceeded 3000 mm^3 were euthanized and the whole study was terminated on day 19. Additionally, mouse #15 in group 1-b was dead on day 13 due to an operation error, while mouse #7 in group 1-a was found dead on day 18 due to tumor ulceration. […]

The subject of data set [2] is influenza A/California/04/2009 (H1N1pdm) virus. Description: Influenza A (H1N1pdm) virus infection in mice, single oral dose. It is filed as in vivo, C57BL/6J mice. The conditions noted are these: for body weight loss during infection vs placebo: single p.o. dose 8.48 mg/kg 24 hours after infection, 6-day observation, p<0.05 days 5 and 6; for body weight loss during infection vs placebo / influenza virus titers in lung tissues vs placebo: 8.48 mg/kg; for influenza virus titers in lung tissues vs placebo: day 3 or 6 p.i.

For data set [3] the following is noted: for clinical observations after IM injection: dose equivalent to 0.3 mg epinephrine, 3 mice per group.
The conditions of data set [4]: human, in vivo, im; cited from earlier work.
For data set [5] the following is noted: beagle dogs N=3, IM 0.3 mg, mean ± SEM.
Protocol: Four days prior to study initiation, 1 mL of whole blood was collected from four (n=4) non-naive male Beagle dogs, aged 1.5-6.5 years and ranging from 9.8 to 10.8 kilograms in weight, into 4 chilled tubes containing K2EDTA. The blood was processed to plasma and plasma cholinesterase activity was assayed according to the Ellman method using acetylthiocholine iodide as the substrate (Ellman, G. L. et al Biochemical Pharmacology, 1961, volume 7, page 88-95). Based on the plasma cholinesterase activity assay results, the first three dogs with highest plasma cholinesterase activity were selected for the PK study.
The dogs were housed one per cage and identified by ear tags and cage labels. The animals were healthy at the start of the study. Primary enclosures were as specified in the USDA Animal Welfare Act (9 CFR, Parts 1, 2, and 3) and as described in the Guide for Care and Use of Laboratory Animals (ILAR publication, 2011, National Academy Press). Animals were fasted for a minimum of 12 hours prior to dosing and returned 4 hours post dose; Water was supplied ad libitum to the animals.
Dosing occurred at 0 hours on the appropriate day in accordance with the Study Design table (Table 11). […] The intramuscular dose was administered via 25 gauge needle and syringe into the lateral aspect of the left or right thigh. […]
A further data set in a line: in vivo. In kind it is in vivo, New Zealand White Rabbits.
Data set [6] deals with methicillin-resistant Staphylococcus aureus (MRSA) NRS71-Sanger 252. Description: Peritonitis-sepsis model of MRSA infection. In kind it is in vivo, C57BL/6J mice. As to the method: Two (2) groups of C57BL/6J 6 to 8 week old female mice (ca 20 g body weight) with 10 mice/group were injected IP with 2×10^8 CFU/mL of methicillin-resistant Staphylococcus aureus (MRSA) NRS71-Sanger 252 in a volume of 200 μL. The treatment group was dosed with dipivefrin 15.3 mg/kg (freebase) by oral gavage starting at t=−5 days relative to bacterial inoculation. Dosing occurred once daily up to 7 days post bacterial inoculation. Body weights were measured once per day on days 0 to 7 and the experimental endpoint was survival at 7 days. Animals falling below 20% of original weight post-infection was euthanized. Four hours (4 hours) post infection, blood was drawn from 4 animals in each group and bacterial load was determined through a standard plating assay. Each blood sample was diluted by serial log dilutions and 10 dilutions (100 to 10-s) was plated in duplicate on TSA with 5% sheep's blood. The plates were incubated for 24 hours at 37° C. at which time formed colonies was enumerated and CFU/mL was determined. One mouse in the vehicle group was found dead the next day following infection and no subsequent death occurred up to 7 days post infection. No mouse died in the treatment group up to 7 days post infection.

Data set [7] in a line: Pharmacokinetic profile after single oral administration in mice (plasma epinephrine by LC/MS/MS). In kind it is in vivo, C57BL6 mice. The note with it: oral (also IM and IP) administration. As to the method:
Male C57BL6 mice, approximately 14 weeks of age and weighing between 28 and 31 g, were placed in an anesthesia chamber and transiently anesthetized with isoflurane (Henry Schein). After approximately 5 minutes and in the absence of reflex (toe pinch), mice were bled via retro-orbital sinus at t=0 (pre-dose). […] Following oral administration, mice were then retro-orbital bled under anesthesia at the following time points post-dose: 15, 30, 1 h, 2 h, 4 h, and 6 h. About 45 μl of the diluted plasma was recovered and plated. The plasma samples were analyzed for epinephrine using a validated LC/MS/MS method (Keystone Bioanalytics, North Wales Pa.).

The text below walks through data of patent US20220193010A1, “METHODS OF USING DIPIVEFRIN” (INSIGNIS THERAPEUTICS, INC., priority 2017, published 2022).

Structures can show the parent of a compound that is named as a salt.

A word on the Tmax: it is the time from dosing to the highest level. The AUC(0-t) is the area under the concentration-time curve up to a stated or last time point. Low values mean low exposure, high ones high exposure.

On to `CNCC(O)c1ccc(OC(=O)C(C)(C)C)c(OC(=O)C(C)(C)C)c1` (stereo not drawn) [Dipivefrin HCl, Dipivefrin hydrochloride], for which, in data set [1] (15.3 mg/kg (freebase) p.o. daily, study period), the drug related deaths result was “no drug related deaths were observed”. Besides, the “effect on body weight” value in data set [1] (15.3 mg/kg (freebase) p.o. daily, tumor-bearing mice) was “no effect on body weight”. The same compound displayed a mean tumor volume in data set [1] (5 days post B16F10 inoculation, 15.3 mg/kg p.o. QD from day -7, vehicle 16.4±2.5, p<0.01) of 6.2±1.1 mm^3. In addition, the “body weight loss during infection vs placebo” value in data set [2] (hydrochloride) is given as “less weight loss compared to placebos”. In data set [2] (single p.o. dose 8.48 mg/kg, hydrochloride), the “influenza virus titers in lung tissues vs placebo” value was “slightly lower in treated mice compared to placebos, the difference was not statistically significant”. For the same compound, the “absorption and conversion into epinephrine” value in data set [3] (mice, IM 0.636 mg) was “absorbed rapidly upon IM injection and quickly converted into epinephrine”. The “clinical observations after IM injection” value in data set [3] (mice) is “appeared to be normal throughout the study and showed no signs of distress or illness”.

Turning to `CNC[C@H](O)c1ccc(O)c(O)c1` [Epinephrine], the Tmax in data set [4] is 1.12 ± 0.717 h. In data set [5], the “AUClast (plasma epinephrine)” value turned out to be 147.37 ± 39.41 ng·min/mL. For the same compound, the AUC(0-t) in the data set “in vivo” (female, New Zealand White, rabbit, in vivo, im, 0.3 mg) was 19.6 ng·h/mL. The “Cmax (plasma epinephrine)” value in “in vivo” (rabbits, IM 0.3 mg, mean±SEM) came to 50.23 ± 14.95 ng/mL.

`CNCC(O)c1ccc(OC(=O)C(C)(C)C)c(OC(=O)C(C)(C)C)c1` (stereo not drawn) [dipivefrin, 4-(1-hydroxy-2-(methylamino)ethyl)-1,2-phenylene bis(2,2-dimethylpropanoate)]: the median tumor volume in data set [1] (14 days post B16F10 inoculation, 15.3 mg/kg p.o. QD, vehicle 1060, p<0.05) turned out to be 827 mm^3. Also, the “ILS (increase in life-span)” value in data set [1] (Group-1b vs vehicle group 1a, p=0.038) is 12%; in data set [1] (Group-2 vs vehicle, p=0.175) it was 6%. Moreover, the “MST (median survival time)” value in data set [1] (Group-1b, 15.3 mg/kg p.o. from day 8) is on record as 19.0 days; in data set [1] (Group-2, 15.3 mg/kg p.o. from day -7), 18.0 days. In addition, the mean tumor volume in data set [1] (day 19, group 1b, 15.3 mg/kg p.o. QD from day 8 (established tumor), vehicle 3668.0±311.9) amounted to 2997.2±341.6 mm^3. Moreover, in data set [1] (day 19, group 1b, dosing from day 8), the “reduction in mean tumor volume compared to vehicle” value is listed as “about 18%”. For the same compound, the “body weight loss during infection vs placebo” value in data set [2] is “losing less weight”. The “influenza virus titers in lung tissues vs placebo” value in data set [2] (single p.o. dose 8.48 mg/kg) is “did not differ significantly”. Further, the “visual lung hemorrhage score (scale 0 to 4)” value in data set [2] (single p.o. dose 8.48 mg/kg, lungs day 3 and day 6 p.i.) is on record as 0-3. The “lung virus titers day 6 p.i. vs day 3 p.i.” value in data set [2] (single p.o. dose 8.48 mg/kg, p<0.05) is listed as “lower virus titers in lung tissues on day 6 p.i. than on day 3 p.i”. Moreover, in data set [6] (15.3 mg/kg (freebase) oral gavage once daily from day -5 to day 7, 10 mice), the “survival at 7 days post infection” value is reported as “No mouse died”. The blood bacterial counts entry in data set [6] (4 hours post infection, 4 animals per group, p<0.05) is “significantly higher for the vehicle treated group than the drug treated group”. For the same compound, the “absorption and biotransformation into epinephrine” value in data set [7] is “absorbed and biotransformed into epinephrine rapidly”.

On to `CNC[C@H](O)c1ccc(O)c(O)c1` [epinephrine bitartrate], for which the mice found dead entry in data set [3] (IM epinephrine bitartrate 0.546 mg (0.3 mg freebase), approximately 20 minutes post administration) is on record as “Two out of three”. Besides, in data set [3] (mice), the “clinical observations after IM injection” value was “cold and lethargic approximately 5 minutes after IM injection”.
